ChEMBL document CHEMBL1201862, “PubChem BioAssay data set” (2004)
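Cells were grown in 96-well plates and exposed to each compound for 48 hours at five concentrations; endpoints were interpolated linearly between bracketing concentrations, or set to the highest concentration if not reached. GI50 is the concentration that inhibits growth by half.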 The source made the active and inactive calls. No stated cut-off is given here; in the data, active = GI50 up to about 1.1 µM and inactive = higher.

What was measured:
Experiment in all cases: NCI-60 cell line screen, 48 h
[1] = tested on: DLD-1
[2] = tested on: DMS-273
[3] = tested on: M19-MEL
[4] = tested on: DMS-114
[5] = tested on: XF498
[6] = tested on: KM-20L2
[7] = tested on: SNB-78
[8] = tested on: RXF 631
[9] = tested on: HOP-18

Measured: GI50

COc1ccc2nc(NC(=O)C(=O)C(C#N)c3ccc(Cl)c(Cl)c3)sc2c1 (stereo unspecified)
inactive: [1] > 100 µM | [2] > 100 µM | [3] > 100 µM | [4] 78.9 µM | [5] > 100 µM | [6] > 100 µM | [7] > 100 µM | [8] > 100 µM

COC(=O)/C=C/C1C(C(=O)OC)C2(C(=O)OC)CCC1(C(=O)OC)N2 (stereo unspecified)
inactive: [9] 96.8 µM | [1] > 100 µM | [2] > 100 µM | [3] > 100 µM | [5] > 100 µM | [6] > 100 µM | [7] > 100 µM | [8] > 100 µM

O=C(c1ccc(O)cc1)C1c2c3c(cc(O)c2C(c2ccc(O)cc2)C1c1cc(O)cc(O)c1)OC(c1ccc(O)cc1)C3c1cc2c(cc1O)OC(c1ccc(O)cc1)C2c1cc(O)cc(O)c1 (stereo unspecified)
inactive: [1] > 12.5 µM | [2] > 12.5 µM | [3] > 12.5 µM | [4] > 12.5 µM | [6] > 12.5 µM

N#C/C(=C\c1ccc(O)cc1O)C(N)=O
inactive: [1] 67.1 µM | [2] > 100 µM | [3] > 100 µM | [5] 34.2 µM | [6] 28.2 µM | [7] > 100 µM

CSc1nnc(CCC(=O)Nc2c(C)cccc2C)o1
inactive: [9] > 100 µM | [1] > 100 µM | [3] > 100 µM | [4] > 100 µM | [5] > 100 µM | [6] > 100 µM | [7] > 100 µM | [8] > 100 µM

COC(=O)[C@@H]1Cc2c([nH]c3ccccc23)[C@H](c2ccccc2)N1
inactive: [9] 52.1 µM | [1] 35.2 µM | [2] 26.7 µM | [3] 41.7 µM | [4] 32.2 µM | [6] > 100 µM

CC(c1cccc2ccccc12)/[N+]([O-])=C/c1ccccc1 (stereo unspecified)
inactive: [9] 36.1 µM | [1] > 100 µM | [2] > 100 µM | [4] > 100 µM | [5] > 100 µM | [6] > 100 µM | [8] > 100 µM

CCCc1ccc(/N=C\c2cc(OC)c(OC)c(OC)c2)cc1
inactive: [9] > 100 µM | [1] > 75.9 µM | [2] > 83.4 µM | [3] > 100 µM | [4] 18.7 µM | [5] > 100 µM | [6] > 100 µM | [7] > 100 µM

CCCCCCCCNC(=O)SCCCC
inactive: [9] 31 µM | [1] 43.4 µM | [2] 31.4 µM | [3] 40.5 µM | [5] 13.8 µM | [6] 33.3 µM | [8] 39.1 µM

CC(C)C(=O)/C=C/c1ccccc1
inactive: [9] > 100 µM | [1] 84.7 µM | [2] 65.2 µM | [3] > 100 µM | [5] > 100 µM | [6] 36.1 µM | [7] 33.1 µM

CN1COc2c(n(C)c(=O)[nH]c2=O)C1
inactive: [9] > 100 µM | [1] > 100 µM | [2] 45.7 µM | [3] > 100 µM | [4] > 61.2 µM | [5] > 100 µM | [6] > 100 µM | [7] > 100 µM

C=C1C(=O)OC2C1C(OC(=O)/C(C)=C\C)CC1(CO1)C1C(O)C=C(C)C21O (stereo unspecified)
inactive: [9] 10.9 µM | [1] 2.33 µM | [2] 6.46 µM | [3] 6.24 µM | [4] 3.19 µM | [5] 12.7 µM | [6] 3.19 µM | [7] 9.53 µM | [8] 3.52 µM

C[C@]12CCc3nn(-c4ccccc4)nc3C1CC[C@@H]1C2CC[C@]2(C)C(=O)CCC12 (stereo partly specified)
inactive: [9] > 100 µM | [1] 93.3 µM | [2] > 100 µM | [3] > 100 µM | [4] > 100 µM | [6] > 100 µM | [7] > 100 µM

O=c1[nH]c2c3ccccc3ccc2c2cc3c(cc12)OCO3
inactive: [9] 2 µM | [1] > 100 µM | [2] 67.1 µM | [3] > 100 µM | [5] 84.1 µM | [6] > 100 µM | [7] > 100 µM | [8] > 100 µM

Nc1c([N+](=O)[O-])nc(Cl)c2nncn12
inactive: [9] > 100 µM | [1] > 58.9 µM | [2] 16.5 µM | [3] > 100 µM | [4] > 42 µM | [5] > 100 µM | [6] > 87.1 µM | [7] > 100 µM | [8] > 100 µM
